# Data published in article PMC4937797 (Antiviral research, 2016).
# Entries after “also recorded” stand apart in the source; their conditions may differ. Read-outs that look alike come from different tables or passages of the source.
# Tests used:
# [1] = test system: subgenomic RSV replicon; type: cell-based, Respiratory syncytial virus; details: for activity in the primary screen (RSV replicon), in words: 10 μM, HTS data; for EC50: read-out: Replicon EC50, APC126-E RSV replicon cells, 48 hours, luminescence
# [2] = test system: RSV A Long; type: cell-based, Respiratory syncytial virus; details: read-out: RSV Long EC50; Hep2 cells, CPE assay
# [3] = test system: RSV B Washington; type: cell-based, Respiratory syncytial virus; details: read-out: RSV B EC50, Hep2 cells, CPE assay
# [4] = Aqueous solubility; type: physicochemical
# [5] = LogD; type: physicochemical
# [6] = Microsomal stability; type: in vitro ADME; details: human liver microsomes
# [7] = Hepatic clearance; type: in vitro ADME
# [8] = Plasma protein binding; type: in vitro ADME
# [9] = target: hERG channel (Homo sapiens, UniProt Q12809); assay: hERG channel inhibition; type: biochemical
# hERG channel, sequence (Q12809 whole entry): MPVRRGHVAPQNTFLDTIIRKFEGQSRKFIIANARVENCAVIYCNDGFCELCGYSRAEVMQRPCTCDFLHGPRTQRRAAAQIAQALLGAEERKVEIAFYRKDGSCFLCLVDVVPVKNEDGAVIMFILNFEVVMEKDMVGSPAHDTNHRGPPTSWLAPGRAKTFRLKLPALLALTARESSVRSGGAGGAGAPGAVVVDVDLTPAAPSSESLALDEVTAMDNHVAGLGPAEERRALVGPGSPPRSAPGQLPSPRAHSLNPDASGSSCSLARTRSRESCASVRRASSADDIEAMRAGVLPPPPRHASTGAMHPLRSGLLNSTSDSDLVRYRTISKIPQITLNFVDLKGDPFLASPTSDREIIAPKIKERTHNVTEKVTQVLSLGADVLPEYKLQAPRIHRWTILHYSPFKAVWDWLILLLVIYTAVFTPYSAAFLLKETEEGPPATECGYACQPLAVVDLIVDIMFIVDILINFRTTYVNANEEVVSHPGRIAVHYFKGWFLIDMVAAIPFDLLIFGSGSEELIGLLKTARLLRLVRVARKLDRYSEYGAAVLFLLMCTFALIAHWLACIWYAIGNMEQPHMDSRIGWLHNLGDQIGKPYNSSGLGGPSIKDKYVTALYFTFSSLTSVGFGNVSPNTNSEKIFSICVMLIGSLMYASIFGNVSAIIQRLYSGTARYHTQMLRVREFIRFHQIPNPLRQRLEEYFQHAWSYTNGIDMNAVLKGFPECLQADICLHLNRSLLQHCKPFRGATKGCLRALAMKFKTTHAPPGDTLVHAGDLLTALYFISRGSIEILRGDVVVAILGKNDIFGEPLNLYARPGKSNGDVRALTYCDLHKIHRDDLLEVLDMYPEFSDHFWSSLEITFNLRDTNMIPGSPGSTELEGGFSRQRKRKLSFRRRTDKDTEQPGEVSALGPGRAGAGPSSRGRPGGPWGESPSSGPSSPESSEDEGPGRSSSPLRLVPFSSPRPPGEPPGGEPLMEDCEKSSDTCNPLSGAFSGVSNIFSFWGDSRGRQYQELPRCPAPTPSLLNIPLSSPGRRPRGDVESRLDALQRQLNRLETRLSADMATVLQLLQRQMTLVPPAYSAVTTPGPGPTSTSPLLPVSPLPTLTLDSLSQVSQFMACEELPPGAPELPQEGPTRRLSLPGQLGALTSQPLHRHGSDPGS
# [10] = test system: RSV N mutant (nucleoprotein mutations); type: cell-based, Respiratory syncytial virus; details: for EC50: read-out: N Mutant EC50, CPE assay, RSV604-resistant N mutant virus
# [11] = test system: RSV L mutant (Y1631H in L polymerase); type: cell-based, Respiratory syncytial virus; details: for EC50: read-out: L Mutant EC50
# [12] = target: RSV polymerase (L/P complex) (Human respiratory syncytial virus A, UniProt P28887); assay: In vitro RNA synthesis assay with purified L/P complex; type: biochemical
# RSV polymerase (L/P complex), sequence (P03421 whole entry): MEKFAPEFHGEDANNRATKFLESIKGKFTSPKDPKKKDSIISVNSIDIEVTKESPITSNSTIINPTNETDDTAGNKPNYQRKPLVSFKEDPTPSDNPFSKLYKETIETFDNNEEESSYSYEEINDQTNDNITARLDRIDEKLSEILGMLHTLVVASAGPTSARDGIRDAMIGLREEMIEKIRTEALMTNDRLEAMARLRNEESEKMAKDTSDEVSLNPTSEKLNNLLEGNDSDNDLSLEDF
# RSV polymerase (L/P complex), sequence (P28887 whole entry): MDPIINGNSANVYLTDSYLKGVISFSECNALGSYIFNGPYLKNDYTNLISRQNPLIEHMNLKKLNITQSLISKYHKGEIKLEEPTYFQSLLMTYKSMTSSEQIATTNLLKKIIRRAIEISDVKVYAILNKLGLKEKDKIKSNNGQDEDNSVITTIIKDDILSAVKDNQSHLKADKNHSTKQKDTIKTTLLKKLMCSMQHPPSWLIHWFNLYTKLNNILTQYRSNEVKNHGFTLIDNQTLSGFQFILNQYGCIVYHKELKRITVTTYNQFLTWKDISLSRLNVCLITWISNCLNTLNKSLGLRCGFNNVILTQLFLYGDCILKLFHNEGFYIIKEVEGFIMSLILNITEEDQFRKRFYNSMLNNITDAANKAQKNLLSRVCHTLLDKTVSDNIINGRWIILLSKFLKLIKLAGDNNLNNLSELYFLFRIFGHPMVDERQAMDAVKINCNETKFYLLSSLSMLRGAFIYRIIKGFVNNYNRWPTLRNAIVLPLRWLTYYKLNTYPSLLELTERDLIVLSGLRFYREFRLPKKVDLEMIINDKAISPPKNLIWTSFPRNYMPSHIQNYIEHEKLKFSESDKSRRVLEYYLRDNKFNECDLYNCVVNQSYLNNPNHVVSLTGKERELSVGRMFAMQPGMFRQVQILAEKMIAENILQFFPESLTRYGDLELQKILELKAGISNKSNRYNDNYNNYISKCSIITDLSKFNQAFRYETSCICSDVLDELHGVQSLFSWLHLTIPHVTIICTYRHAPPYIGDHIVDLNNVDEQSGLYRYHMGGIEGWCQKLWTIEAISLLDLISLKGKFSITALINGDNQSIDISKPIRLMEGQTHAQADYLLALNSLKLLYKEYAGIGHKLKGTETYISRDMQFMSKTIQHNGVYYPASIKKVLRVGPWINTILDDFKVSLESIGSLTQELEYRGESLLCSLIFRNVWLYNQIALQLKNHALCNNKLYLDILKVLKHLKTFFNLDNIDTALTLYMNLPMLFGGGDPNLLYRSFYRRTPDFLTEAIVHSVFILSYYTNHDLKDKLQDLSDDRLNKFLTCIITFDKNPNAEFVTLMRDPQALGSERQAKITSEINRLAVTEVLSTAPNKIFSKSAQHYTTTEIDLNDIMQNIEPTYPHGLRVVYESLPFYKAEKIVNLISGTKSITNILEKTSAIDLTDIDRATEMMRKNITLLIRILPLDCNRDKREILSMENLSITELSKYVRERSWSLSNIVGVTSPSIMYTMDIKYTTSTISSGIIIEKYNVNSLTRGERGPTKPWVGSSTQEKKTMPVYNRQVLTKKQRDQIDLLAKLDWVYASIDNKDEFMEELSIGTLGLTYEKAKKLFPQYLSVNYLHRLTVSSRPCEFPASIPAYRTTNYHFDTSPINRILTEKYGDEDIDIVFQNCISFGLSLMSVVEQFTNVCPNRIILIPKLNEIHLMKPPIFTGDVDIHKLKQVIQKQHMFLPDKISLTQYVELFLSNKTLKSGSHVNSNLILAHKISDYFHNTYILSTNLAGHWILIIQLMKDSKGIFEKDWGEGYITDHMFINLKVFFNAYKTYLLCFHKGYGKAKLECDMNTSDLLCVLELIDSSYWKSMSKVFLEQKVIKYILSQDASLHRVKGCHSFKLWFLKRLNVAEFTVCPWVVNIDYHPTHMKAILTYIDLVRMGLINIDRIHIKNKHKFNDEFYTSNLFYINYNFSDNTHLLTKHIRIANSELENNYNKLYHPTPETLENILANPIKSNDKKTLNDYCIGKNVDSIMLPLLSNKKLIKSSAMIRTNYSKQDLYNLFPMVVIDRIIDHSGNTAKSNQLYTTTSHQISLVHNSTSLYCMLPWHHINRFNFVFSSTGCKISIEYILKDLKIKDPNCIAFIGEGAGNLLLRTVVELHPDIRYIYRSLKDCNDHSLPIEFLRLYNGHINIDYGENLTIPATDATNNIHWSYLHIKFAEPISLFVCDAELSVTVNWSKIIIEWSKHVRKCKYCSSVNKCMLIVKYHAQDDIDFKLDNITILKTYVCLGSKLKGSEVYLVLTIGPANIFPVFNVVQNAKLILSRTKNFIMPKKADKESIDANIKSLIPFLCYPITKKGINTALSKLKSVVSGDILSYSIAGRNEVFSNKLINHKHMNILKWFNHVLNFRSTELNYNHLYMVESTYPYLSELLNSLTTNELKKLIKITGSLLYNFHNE
# [13] = test system: T7 RNA polymerase
# [14] = test system: subgenomic RSV replicon; details: read-out: Replicon EC50; assay validation; ref Tiong-Yip et al (2014); cited from earlier work
Compound,EC50 [1] [µM],EC50 [2] [µM],EC50 [3] [µM],Solubility [4] [µM],LogD [5],HLM [6] [µL/min/mg],Rhep [7] [μL/min/10^6 cells],PPB (% free) [8] [% free],EC50 [10] [µM],shift in activity against the L-mutant strain [11],EC50 [11] [µM],other results
Cn1cnc(S(=O)(=O)N2CCCCN3[C@H](CO)[C@@H](c4ccc(-c5ccc(F)cc5)cc4)[C@@H]3C2)c1 [BRD65768],4.3,7.5,> 50,121,3.3,41.2,23.6,2.1,13.1,> 3 fold,> 25,"activity in the primary screen (RSV replicon), in words [1]: weak but significant activity; hERG (% inh at 11 μM) [9]: 18%; N Mutant fold shift ([10]; shift versus RSV A2 EC50): 2 x; L Mutant fold shift ([11]; shift versus RSV A2 EC50): > 4 x"
COc1cc(CN2CC3(CCN(S(=O)(=O)c4cn(C)cn4)CC3)c3c(n(C)c4cc(OC)ccc34)[C@H]2CO)cc(OC)c1 [BRD3482],7.2,1,4.7,22,2.9,–,–,3.8,–,–,–,–
COc1ccc2c3c([nH]c2c1)[C@H](CO)N(Cc1ccccc1)CC31CCN(C(=O)Cc2ccccc2)CC1 [BRD5449],4.9,6.8,> 50,16,>4.4,465,194,<1,–,–,–,–
Cc1cccc(-c2ccc([C@@H]3[C@@H](CO)N4CCCCN(S(=O)(=O)c5cn(C)cn5)C[C@@H]34)cc2)c1 [BRD3969],4.2,3.9,> 50,49,3.6,77.9,61.7,1.6,6.9,greater than 6 fold,> 25,"activity in the primary screen (RSV replicon), in words [1]: weak but significant activity; hERG (% inh at 11 μM) [9]: 14%; N Mutant fold shift [10]: 6.9 μM (1.8x); L Mutant fold shift [11]: > 25 μM (>6x); effect on RSV RNA synthesis initiation or elongation in vitro ([12]; 1000 μM, data not shown): no effect; effect on in vitro RNA synthesis (de novo synthesis, back-priming) ([12]; concentrations up to 100 μM, 30 °C, 2 h): does not inhibit the ability of the polymerase to synthesize RNA; also recorded: no discernible effect; effect on T7 RNA polymerase (input minigenome template) [13]: inhibited T7 RNA polymerase"
CN1c2ccc(-c3ccc(C#N)cc3)cc2[C@H]2[C@H](CCN2C(=O)c2cccc(F)c2)[C@@H]1CO [BRD4517],10.6,1.6,5.5,–,–,–,–,–,–,–,–,–
O=C(NC1CC1)c1cc2c(s1)-c1ccccc1N(C(=O)c1ccc(NC(=O)c3ccccc3-c3ccccc3)cc1)CC2 [YM53403],–,–,–,–,–,–,–,–,–,–,–,EC50 [14]: 0.63 µM
NC(=O)c1ncn([C@@H]2O[C@H](CO)[C@@H](O)[C@H]2O)n1 [ribavirin],–,–,–,–,–,–,–,–,–,–,–,EC50 [14]: 6.28 µM
O=S(=O)(c1cccs1)N1CCCCN2[C@H](CO)[C@@H](c3ccc(/C=C/c4ccccc4)cc3)[C@@H]2C1 [BRD9101],4.3,1.7,> 50,<1,>4.8,57.1,67.8,<1,7.8,greater than 15 fold,> 25,"% inhibition of the RSV replicon in the primary screen ([1]; 10 uM, single concentration HTS): 70%; N Mutant fold shift ([10]; shift versus RSV A2 EC50): 4.6 x"
